The text below walks through data of article PMC8037310, “Thrombin-Derived Peptides Potentiate the Activity of Gram-Positive-Specific Antibiotics against Gram-Negative Bacteria” (Molecules, 2021).

Bridge positions count the residues as written; N and C are the ends. Square brackets hold non-standard residues; d marks the D form. Peptide text beside a SMILES is read from it. Dab = NCC[C@H](N)C(=O)O

Holding throughout (assay type): cell-based, Escherichia coli
Assay [1] concerns E. coli BW25113. In words: Checkerboard assay with erythromycin.
For assay [2], the system named is E. coli BW25113. In words: microbe, parasite or virus in culture. The procedure:
(§1) All peptides were screened for antimicrobial activity against E. coli BW25113, E. coli ATCC25922, and E. coli W3110. A select group of the peptides was further tested against E. coli mcr-1, E. coli EQASmcr-1 (EQAS 2016 412016126), E. coli EQASmcr-2 (EQAS 2016 KP37), E. coli EQASmcr-3 (EQAS 2017 2013-SQ352), K. pneumoniae ATCC13883, P. aeruginosa ATCC27853, and A. baumannii ATCC17978. The antimicrobial assay was performed according to CLSI guidelines. Bacteria were plated out directly from their glycerol stocks on blood agar plates, incubated overnight at 37 °C, and then kept in the fridge. The blood agar plates were only used for 2 weeks and then replaced.
(§2) One colony from a blood agar plates was inoculated in Lysogeny Broth (LB) at 37 °C until a 0.5 optical density at 600 nm (OD600) was reached (compared to the sterility control of LB). The bacterial suspension was diluted in fresh LB to 2.0 × 10^6 CFU/mL. The serial dilutions were prepared in polypropylene microtiter plates: a stock of the test compounds was prepared with a 2x final concentration in LB. Moreover, 100 µL of the stock was added to the wells of the top row of which 50 µL was used for the serial dilution. The bottom row of each plate was used as the positive (50 µL of LB) and negative controls (100 µL of LB) (6 wells each). Furthermore, 50 µL of the 2.0 × 10^6 CFU/mL bacterial stock was added to each well except for the negative controls, adding up to a total volume of 100 µL per well. The plates were sealed with a breathable seal and incubated for 20 h at 37 °C and 600 rpm.
(§3) Two 96-well plates were required per compound. A serial dilution of the compound was performed on two plates from row A–G using with LB as medium. Row H was filled with 25 µL medium. On a separate plate a negative control (8 wells, 100 μL medium) was prepared. For all concentrations of antibiotic a specific stock was prepared. 25 µL medium was added to the 0 µg/mL antibiotic columns (plate I, column 1–3). Of each antibiotic stock 25 µL was added to three columns to obtain triplicates for every condition. Both plates contained 50 µL in each well to which 50 µL bacterial stock was added (see the protocol of the MIC assays) and the plates were sealed. After incubation for 20 h at 37 °C while shaking, the breathable seals were removed and the density of the bacterial suspensions measured at 600 nm (OD600) using a Tecan Spark plate reader. The OD600 values were transformed to a 2D gradient with the negative control as minimum and the positive control (wells G1, G2, and G3) as maximum in excel. The FICi was calculated using Equation (1) with a FICi ≤ 0.5 indicating synergy. FICi = (MSCa/MICa) + (MSCb/MICb),(1)
(§4) Calculation of the FICi: MSCa = concentration of the […] in combination with the antibiotic that results in the lowest FICi. MICa = MIC of the antibiotic without synergist (row G). MSCb = concentration of the synergist in combination with the antibiotic that results in the lowest FICi. MICb = MIC of the synergist itself (Column 1–3, plate I).

The subject of assay [3] is E. coli BW25113. Description: microbe, parasite or virus in culture. The procedure:
as §1, §2, §3, §4
The source holds these as a separate data set.

Assay [4] relates to E. coli BW25113. In words: Membrane permeability assay using N-phenylnaphthalen-1-amine (NPN). The note with it: at […]; 60 min incubation, λex 355 nm, λem 420 nm, relative to 100 µg/mL colistin; n = 3 technical replicates. Here is the method: Figure 7 Permeabilization assay of E. coli BW25113 using N-Phenyl-1-naphthylamine as fluorescent probe. The read-out was performed after 60 min of incubation using a plate reader with λex 355 nm and λem 420 nm. The N-phenyl-napthalen-1-amine (NPN) uptake values shown are relative to the uptake signal obtained upon treating the cells with 100 µg/mL colistin as previously reported. Error bars represent the standard deviation based on n = 3 technical replicates. A read-out was also performed after 10 min of incubation (see Supplementary data, Figure S16).
This assay was adapted from a protocol described in literature. Bacteria were inoculated overnight at 37 °C in LB, diluted the next day 50× in LB and grown to OD600 of 0.5. The bacterial suspension was then centrifuged for 10 min at 1000× g at 25 °C. The pellet of bacteria was resuspended in 5 mM HEPES buffer containing 20mM glucose to a final concentration of OD600 of 1.0. […] After 10 and 60 min, the plate was measured using Tecan plate reader with λex 355 nm ±20 nm and λem 420 nm ± 20 nm. The fluorescence values obtained were then transformed into a NPN uptake percentage using the following Equation (2):NPN uptake (%) = (Fobs − F0)/(F100 − F0) × 100%,(2)
Equation (2) consists of an observed value of fluorescence (Fobs), which is corrected for background using the negative control (F0). […]

For assay [5], the system named is E. coli BW25113.

Take `CC(C)C[C@@H]1NC(=O)[C@@H](Cc2ccccc2)NC(=O)[C@H](CCN)NC(=O)[C@@H](NC(=O)[C@H](CCN)NC(=O)[C@@H](N)[C@@H](C)O)CCNC(=O)[C@H]([C@@H](C)O)NC(=O)[C@H](CCN)NC(=O)[C@H](CCN)NC1=O` [PMBN, polymyxin B nonapeptide, reference compound] (H-T[Dab][Dab][Dab][dF]L[Dab][Dab]T; lactam 3-C (inferred); N-terminus assumed): the FICi in assay [1] (BW25113, 20 h) stood at 0.125. Besides, in assay [1] (erythromycin concentration in the combination with the synergist giving the lowest FICi, E. coli BW25113), the MSCery worked out at 12.5 µg/mL. In assay [1] (synergist alone, E. coli BW25113, LB, 20 h 37 °C, from checkerboard with erythromycin), the “MIC of the peptide (MICpep)” value is on record as greater than 200 µg/mL. The “MSCpeptide, minimum synergistic concentration” value in assay [1] (synergist concentration in the combination with erythromycin giving the lowest FICi, E. coli BW25113, LB, 20 h 37 °C, OD600) is reported as 25 µg/mL. Further, the MSCnovo in assay [2] (novobiocin concentration in the combination giving the lowest FICi, E. coli BW25113) was 6.25 µg/mL. Besides, the MICpeptide in assay [2] (synergist alone, E. coli BW25113, from checkerboard with novobiocin) is greater than 200 µg/mL; in assay [3] (synergist alone, E. coli BW25113, from checkerboard with vancomycin), greater than 200 µg/mL. The MSCpeptide in assay [2] (synergist concentration in the combination with novobiocin giving the lowest FICi, E. coli BW25113) is 12.5 µg/mL; in assay [3] (synergist concentration in the combination with vancomycin giving the lowest FICi, E. coli BW25113), 12.5 µg/mL. Besides, in assay [3] (vancomycin concentration in the combination giving the lowest FICi, E. coli BW25113), the MSCvanco stood at 50 µg/mL. Besides, the “OM permeabilization (NPN uptake)” value in assay [4] is given as “ca. 80%”. Moreover, the MSCrif in assay [5] (rifampicin concentration in the combination giving the lowest FICi, E. coli BW25113) amounted to 0.25 µg/mL. Moreover, the MICpep in assay [5] (synergist alone, E. coli BW25113, from checkerboard with rifampicin) is greater than 200 µg/mL. Moreover, the MSCpep in assay [5] (synergist concentration in the combination with rifampicin giving the lowest FICi, E. coli BW25113) came out at 12.5 µg/mL.
